Earlier results, collected in US7514484B2, “Aqueous dispersion of polytetrafluoroethylene and process for its production” (Asahi Glass Company, Limited, priority 2005, dated 2009).
Where two headings read alike, the source gives them in different places.

[1] = additives of Table 3, value of the corresponding acid
[2] = carboxylic acid corresponding to the salt of formula (4)

Compound | pKa [1] | pKa [2]
ammonium fluorophenyl acetate [(f)] | 4.3 | –
CCCCCCCCCCCC(=O)O [lauric acid] | – | 4.6
O=C(O)C(F)c1ccccc1 (stereo not shown) [fluorophenyl acetic acid] | – | 4.3
CCCCCCCCCCCC(=O)O.N [(d), ammonium laurate] | 4.6 | –
